After the bases stand the sugars from the 5' end (letter, count) and the backbone: PS all phosphorothioate, else s phosphorothioate and o phosphodiester by linkage. Methylation of C is not given here. e = 2'-O-(2-methoxyethyl) (MOE); k = constrained ethyl (cEt); d = 2'-deoxy (DNA)
Target: IRF4
Conditions: ASO

Sequence	target mRNA inhibition (MM.1R, 1 µM)	target mRNA inhibition (SK-MEL-28, 4 µM)	other results
GATGAGAATTCCAAAC (sugars k3 d10 k3, PS)	14%	84%	target mRNA inhibition (MM.1R, 0.0625 µM): -1%; target mRNA inhibition (MM.1R, 0.074 µM): 0%; target mRNA inhibition (MM.1R, 0.222 µM): 2%; target mRNA inhibition (MM.1R, 0.25 µM): 2%; target mRNA inhibition (MM.1R, 0.666 µM): 0%; target mRNA inhibition (MM.1R, 2 µM): 32%; target mRNA inhibition (MM.1R, 4 µM): 36%
GATGAGATATTCCTCT (sugars k3 d10 k3, PS)	-24%	–	–
GATGCAGCTGGCCACA (sugars k3 d10 k3, PS)	–	73%	–
GATGGAACAGTAACTT (sugars k3 d10 k3, PS)	–	51%	–
GATGTGATAGCTGAGC (sugars k2 d9 e3 k2, PS)	52%	–	–
GATGTGATAGCTGAGC (sugars kkddddddddddkeke, PS)	64%	–	–
GATGTGATAGCTGAGC (sugars kkdddddddddkekek, PS)	31%	–	–
GATTATATACTGGTTG (sugars kddddddddddkekek, PS)	48%	–	–
GATTATATACTGGTTG (sugars kkdddddddddkdkdk, PS)	35%	–	–
GATTATATACTGGTTG (sugars kkdddddddddkekek, PS)	45%	–	–
GCAAAGCCACCCTTCC (sugars k3 d10 k3, PS)	–	60%	–
GCAACTAGCAGGGCAC (sugars k3 d10 k3, PS)	–	53%	–
GCAAGTGTCTTCCACA (sugars k3 d10 k3, PS)	–	77%	–
GCAAGTTTTCTCTGTC (sugars k3 d10 k3, PS)	–	56%	–
GCAATTAGCTCTTCTA (sugars k3 d10 k3, PS)	–	21%	–
GCACACACAAGTGGCC (sugars k3 d10 k3, PS)	–	64%	–
GCACGCAAGGCTCGGA (sugars k3 d10 k3, PS)	7%	–	–
GCACGGACGAACGCGC (sugars k3 d10 k3, PS)	–	23%	–
GCACTCTTACTCCGCT (sugars k3 d10 k3, PS)	2%	–	–

Sequence	target mRNA inhibition (MM.1R, 1 µM)	target mRNA inhibition (SK-MEL-28, 4 µM)	other results
GCACTGGCATTGAGAC (sugars k3 d10 k3, PS)	–	73%	–
GCAGAAGCTGGTTGGC (sugars k3 d10 k3, PS)	–	58%	–
GCAGCTCCTACATACA (sugars k3 d10 k3, PS)	–	53%	–
GCAGTGATGTCAGGTT (sugars e1 k2 d9 k2 e2, PS)	56%	–	target mRNA inhibition (MM.1R, 0.074 µM): 15%; target mRNA inhibition (MM.1R, 0.222 µM): 33%; target mRNA inhibition (MM.1R, 0.666 µM): 52%; target mRNA inhibition (MM.1R, 2 µM): 75%
GCAGTGATGTCAGGTT (sugars k2 d9 e3 k2, PS)	81%	–	target mRNA inhibition (MM.1R, 0.074 µM): 20%; target mRNA inhibition (MM.1R, 0.222 µM): 48%; target mRNA inhibition (MM.1R, 0.666 µM): 73%; target mRNA inhibition (MM.1R, 2 µM): 91%
GCAGTGATGTCAGGTT (sugars kddddddddddkekek, PS)	36%	–	–
GCAGTGATGTCAGGTT (sugars kdddddddddkekeke, PS)	33%	–	–
GCAGTGATGTCAGGTT (sugars kkddddddddddkeke, PS)	67%	–	target mRNA inhibition (MM.1R, 0.074 µM): 25%; target mRNA inhibition (MM.1R, 0.222 µM): 45%; target mRNA inhibition (MM.1R, 0.666 µM): 63%; target mRNA inhibition (MM.1R, 2 µM): 85%
GCAGTGATGTCAGGTT (sugars kkdddddddddekeke, PS)	80%	–	target mRNA inhibition (MM.1R, 0.074 µM): 22%; target mRNA inhibition (MM.1R, 0.222 µM): 49%; target mRNA inhibition (MM.1R, 0.666 µM): 73%; target mRNA inhibition (MM.1R, 2 µM): 92%
GCATAGTGATGAGATA (sugars k3 d10 k3, PS)	–	59%	–
GCATCTCTAAAGAATG (sugars k3 d10 k3, PS)	–	61%	–
GCATGTTCCTCAAAGC (sugars k3 d10 k3, PS)	–	76%	–
GCATTTTATCATCCGA (sugars k3 d9 k3 e1, PS)	62%	–	target mRNA inhibition (MM.1R, 0.074 µM): 16%; target mRNA inhibition (MM.1R, 0.222 µM): 32%; target mRNA inhibition (MM.1R, 0.666 µM): 51%; target mRNA inhibition (MM.1R, 2 µM): 77%
GCATTTTATCATCCGA (sugars kdddddddddkekeke, PS)	23%	–	–
GCATTTTCCAGAAAAT (sugars k4 d8 k4, PS)	–	37%	–
GCCAAAGAGCCCAATT (sugars k3 d10 k3, PS)	–	33%	–
GCCAAAGTGACTTAAT (sugars k3 d10 k3, PS)	–	70%	–
GCCAAGTTGAAGACAC (sugars k3 d10 k3, PS)	–	57%	–
GCCACATTAGCAATTA (sugars k3 d10 k3, PS)	–	8%	–

From the OligoGym collection
